# Where two headings read alike, the source gives them in different places. Where a SMILES comes first, the peptide text is derived from it. Where no end group is shown, it is not given here. [ ]: non-standard residue; d: D form.
# How the values were obtained:
# S. aureus ATCC 19636 = experiment: Mouse sepsis model infected with S. aureus, in vivo protection efficacy; set-up: species or system ICR mice; conditions: for survival (mice protected from death): S. aureus 4×10^6 CFU/mouse i.p., monitored 7 days; for in vivo protection efficacy, compared between peptides: mouse sepsis model, FIG. 8 (5 mg/kg) and FIG. 9 (different doses)
# Procedure: To investigate the in vivo protection efficacy of the 37-mer L- and D-HBcARD peptides, we performed a mouse sepsis model infected with S. aureus. ICR mice were first i.p. inoculated with S. aureus (4×10^6 CFU/mouse), followed by one single i.p. injection of L-HBcARD, D-HBcARD and PBS at two hours post-inoculation, respectively. All mice (n=10) administered with PBS died at day 1. See FIG. 4, A. At 7 days post-inoculation, 40% of mice treated with L-HBcARD (10 mg/kg) survived. See FIG. 4, A. In contrast, D-HBcARD peptide was able to achieve a much higher survival rate (60% for 5 mg/kg dose, and 100% for 10 mg/kg dose).
# We compared the in vivo protection efficacy of HBcARD 150-177C peptides (28-mer) containing either D-form or L-form arginines. ICR mice (n=10/group) were ip. inoculated with S. aureus ATCC19636 (4×10^6/mouse), followed by treatment with modified peptides at two hours post-inoculation. All PBS control mice died on day 1, and only 20% of the mice treated with control peptide (150-177Q) survived. Administration of L-150-177C peptide at the dose of 5 and 10 mg/kg protected 30% and 70% mice from death, respectively. When treated with 5 mg/kg of D-150-177C, all mice (100%) survived.
# Three-week old male ICR mice (19 to 21 g) were purchased from BioLASCO (Taiwan). To test the in vivo protection efficacy of the HBcARD peptides, all mice were inoculated intraperitoneally with S. aureus ATCC 19636 (4×10^6 CFU/mouse). HBc147-183 (L- or D-HBcARD) or the PBS control was administered intraperitoneally at 2 hours after bacterial inoculation, respectively. Each group contained 10 mice. Mortality was monitored daily for 7 days following the bacterial inoculation.
# [1] = In vivo toxicity (survival, serum ALT); set-up: species or system ICR mice; conditions: for serum ALT level compared with polymyxin B: day 1
# Procedure: FIG. 7 is a set of graphs showing lower in vivo toxicity of HBcARD peptide D-150-177C in comparison with polymyxin B. At day 0, male ICR mice (5 mice/group) were ip. injected with different doses of D-150-177C peptide (20-80 mg/kg) and polymyxin B (50 mg/kg), respectively. (A) The survival rates of all groups were monitored for 7 days. (B) Serum samples collected from mice treated with D-150-177C and polymyxin B were determined for alanine aminotransferase activity (ALT) at day 1. The dash line represents the mean of ALT value (45 U/L) of ICR mice (Charles River Laboratories).
# Using the sepsis mouse model, we examined the survival rates of ICR mice intraperitoneally (i.p.) injected with the 28-mer D-150-177C peptide (20-80 mg/kg body weight) and polymyxin B (a colistin-related compound) (50 mg/kg body weight). […] See FIG. 7, A. When the doses were increased to 60 and 80 mg/kg, survival rates of mice were decreased to 80% and 40%, respectively. See, FIG. 7, A. Liver injury can be detected by the serum ALT level.
# P. aeruginosa = format: cell-based, Pseudomonas aeruginosa
# Procedure: (§1) The antimicrobial activities of HBcARD peptides were tested using a number of bacterial strains, including Pseudomonas aeruginosa Migula strains (ATCC 27853, ampicillin-resistant and ATCC 9027, ampicillin-resistant), Klebsiella pneumoniae strain (ATCC 13884), Shigella dysenteriae Xen27 (Caliper Co.), Escherichia coli strain (ATCC 25922), Staphylococcus aureus subsp. strains (ATCC 25923, methicillin-resistantATCC 29213, methicillin-resistant and ATCC 19636, methicillin-resistant) and Acinetobacter baumannii strains (ATCC 17978, ATCC 17978 CR, ATCC19606, ATCC 19606 CR, TCGH 45530 and TCGH 46709). Clinical isolates TCGH 45530 and TCGH 46709 were obtained from Tzu-Chi Buddhist General Hospital (TCGH) in Taiwan, and were identified using the Vitek system (Biomerieux Vitek, Inc., Hazelwood, MO, USA). See Chang et al. (2012), J Microbiol Immunol Infect 45:37-42 doi:10.1016/j.jmii.2011.09.019.
# (§2) L- and D-HBcARD peptides were purchased from Yao-Hong Biotechnology Inc. (Taipei, Taiwan). Antimicrobial activity was determined as described. See, Chen et al., 2013. Briefly, bacteria were grown in MH broth (Difco) to mid-logarithmic phase at 37° C., and were diluted to 10^6 CFU (colony formation unit)/ml in phosphate buffer (10 mM sodium phosphate and 50 mM sodium chloride, pH 7.2). Peptides were serially diluted in the same buffer. Fifty microliters (μl) of bacteria were mixed with fifty μl of peptides at varying concentrations, followed by incubation at 37° C. for 3 hours without shaking. At the end of incubation, bacteria were placed on Mueller-Hinton broth agar plates, and allowed to grow at 37° C. overnight for measurement of minimal bactericidal concentration (MBC).
# (§3) All peptides were tested in triplicate.
# K. pneumoniae = format: cell-based, Klebsiella pneumoniae
# Procedure: as §1, §2, §3
# E. coli = format: cell-based, Escherichia coli; conditions: for Minimal bactericidal concentration: E. coli ATCC 25922
# Procedure: as §1, §2, §3
# A. baumannii = format: cell-based, Acinetobacter baumannii
# Procedure: as §1, §2, §3
# S. aureus = format: cell-based, Staphylococcus aureus
# Procedure: as §1, §2, §3
# [2] = 5 mg/kg single i.p. injection 2 hours post-inoculation
compound,measurement,setting,value
RrRGRSPRrRTPSPRrRrSQSPRrRrSC (R[dR]RGRSPR[dR]RTPSPR[dR]R[dR]SQSPR[dR]R[dR]SC) [LD-150-177C],survival (mice protected from death),S. aureus ATCC 19636; [2],80%
same,"in vivo protection efficacy, compared between peptides",S. aureus ATCC 19636,less than DL-150-177C
polymyxin B [reference compound],survival outcome after i.p. injection,[1]; 50 mg/kg body weight i.p.,died at day one
TVIRRRGGARASRSPRRRTPSPRRRRSQSPRRRRSQSPSANC [Woodchuck HBcARD],Minimal bactericidal concentration,P. aeruginosa; P. aeruginosa ATCC 9027,9.8 µg/mL
same,Minimal bactericidal concentration,K. pneumoniae; K. pneumoniae ATCC 13884,9.8 µg/mL
same,Minimal bactericidal concentration,E. coli,19.6 µg/mL
same,Minimal bactericidal concentration,A. baumannii; A. baumannii ATCC 17978,4.9 µg/mL
same,Minimal bactericidal concentration,S. aureus; S. aureus ATCC19636,19.6 µg/mL
RRRGRSPRRRTPSPRRRRSQSPRRRRSC [150-177C],MBC,P. aeruginosa,2 µM
same,MBC,E. coli,2 µM
same,MBC,S. aureus,2 µM
same,MBC,"S. aureus; S. aureus ATCC19636, listed as HBcARD 150-177C",rescued the bactericidal activity
same,survival (mice protected from death),S. aureus ATCC 19636; [2],30%
same,survival (mice protected from death),S. aureus ATCC 19636; 10 mg/kg single i.p. injection 2 hours post-inoculation,70%
RRRGRSPRRRTPSPRRRRC [150-168C],MBC,S. aureus; S. aureus ATCC19636,none of these peptides showed detectable activity
RRRGRSPRRRTPSPRRRRSQSPRRRRSQ [150-177Q],MBC,"S. aureus; S. aureus ATCC19636, listed as HBcARD 150-177Q",no detectable bactericidal activity
same,survival,"S. aureus ATCC 19636; control peptide, dose not given, treatment 2 hours post-inoculation",20%
rRrGRPrRrPPrRrRQPrRrRC ([dR]R[dR]GRP[dR]R[dR]PP[dR]R[dR]RQP[dR]R[dR]RC) [DL-dST-150-177C],"in vivo protection efficacy, compared between peptides",S. aureus ATCC 19636,remarkably improved protection efficacy compared to the 28-mers DL-150-177C and L-150-177C
"C[C@@H](O)[C@H](NC(=O)[C@@H](CCCNC(=N)N)NC(=O)[C@@H](CCCNC(=N)N)NC(=O)[C@@H](CCCNC(=N)N)NC(=O)[C@@H]1CCCN1C(=O)[C@H](CO)NC(=O)[C@@H](CCCNC(=N)N)NC(=O)CNC(=O)[C@@H](CCCNC(=N)N)NC(=O)[C@@H](CCCNC(=N)N)NC(=O)[C@H](N)CCCNC(=N)N)C(=O)N1CCC[C@H]1C(=O)N[C@@H](CO)C(=O)N1CCC[C@H]1C(=O)N[C@H](CCCNC(=N)N)C(=O)N[C@H](CCCNC(=N)N)C(=O)N[C@H](CCCNC(=N)N)C(=O)N[C@H](CCCNC(=N)N)C(=O)N[C@@H](CO)C(=O)N[C@@H](CCC(N)=O)C(=O)N[C@@H](CO)C(=O)N1CCC[C@H]1C(=O)N[C@H](CCCNC(=N)N)C(=O)N[C@H](CCCNC(=N)N)C(=O)N[C@H](CCCNC(=N)N)C(=O)N[C@H](CCCNC(=N)N)C(=O)N[C@@H](CO)C(=O)N[C@@H](CS)C(=O)O [D-150-177C, rrrGrSPrrrTPSPrrrrSQSPrrrrSC] (H-[dR][dR][dR]G[dR]SP[dR][dR][dR]TPSP[dR][dR][dR][dR]SQSP[dR][dR][dR][dR]SC-OH; N-terminus and C-terminus assumed)",survival rate,"[1]; 60 mg/kg i.p., monitored 7 days",80%
same,serum ALT level compared with polymyxin B,"[1]; 60 mg/kg, p<0.01",significantly higher
same,survival rate,"[1]; 80 mg/kg i.p., monitored 7 days",40%
same,acute toxicity,"[1]; 20 and 40 mg/kg i.p., monitored 7 days",no acute toxicity
same,serum ALT level compared with polymyxin B,"[1]; 20 to 40 mg/kg, p value insignificant",higher ALT level than polymyxin B
rRrGRSPrRrTPSPrRrRSQSPrRrRSC ([dR]R[dR]GRSP[dR]R[dR]TPSP[dR]R[dR]RSQSP[dR]R[dR]RSC) [DL-150-177C],survival (mice protected from death),S. aureus ATCC 19636; [2],protected all S. aureus-infected mice from death
same,"in vivo protection efficacy, compared between peptides",S. aureus ATCC 19636,very similar protection efficacy to all-D-arginine substituted peptide D-150-177C
TIVRRRGGSRATRSPRRRTPSPRRRRSQSPRRRRSQSPASSNC [Bat HBcARD],Minimal bactericidal concentration,P. aeruginosa; P. aeruginosa ATCC 9027,10 µg/mL
same,Minimal bactericidal concentration,K. pneumoniae; K. pneumoniae ATCC 13884,5 µg/mL
same,Minimal bactericidal concentration,E. coli,20 µg/mL
same,Minimal bactericidal concentration,A. baumannii; A. baumannii ATCC 17978,2.5 µg/mL
same,Minimal bactericidal concentration,S. aureus; S. aureus ATCC19636,20 µg/mL
RKPRGLEPRRRKVKTTVVYGRRRSKSRGRRSSPSQR [Heron HBcARD],Minimal bactericidal concentration,P. aeruginosa,>69.3 µg/mL
same,Minimal bactericidal concentration,K. pneumoniae,>69.3 µg/mL
same,Minimal bactericidal concentration,A. baumannii,69.3 µg/mL
RRRTPSPRRRRSQSPRRRRC [157-176C],MBC,S. aureus; S. aureus ATCC19636,none of these peptides showed detectable activity
RRRRSQSPRRRRSC [164-177C],MBC,S. aureus; S. aureus ATCC19636,none of these peptides showed detectable activity
RKPRGLEPRRRKVKTTVVYGRRRSKSRERRAPTPQR [Duck HBcARD],Minimal bactericidal concentration,P. aeruginosa,>70.6 µg/mL
same,Minimal bactericidal concentration,K. pneumoniae,>70.6 µg/mL
same,Minimal bactericidal concentration,A. baumannii,70.6 µg/mL

# Reference: patent publication US12084479B2, “Modified antimicrobial peptide derived from an arginine-rich domain” (priority 2016, dated 2024)
